# Results from PubChem BioAssay AID1963864 (Molecular Pharmacology Branch, DTP, NCI, 2024).
# Tested on: KRAS PDC multicell spheroid viability
# Experiment: Anticancer human tumor 521955-158-R6-J3-PDC patient-derived pancreatic carcinoma cell line growth inhibition [KRAS2]
# Conditions: for viability, T/C: stronger effect = lower value
# How it was run: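 KRAS-mutant tumor cells were grown as spheroids with HUVEC endothelial cells and human MSCs as stroma. Targeted agents were tested alone and with KRAS pathway inhibitors. Doses started at or near clinical Cmax, or 10 microM, descending half-log.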
# [1] = curve of first compound, second compound 0.1 µM
# [2] = curve of first compound, second compound 0.316 µM
# [3] = curve of first compound, second compound 1 µM
# [4] = curve of first compound, second compound 3.16 µM
# [5] = curve of first compound, second compound 10 µM
# [6] = second compound 0.1 µM, first compound 0.01 µM
# [7] = second compound 0.1 µM, first compound 0.0316 µM
# [8] = second compound 0.1 µM, first compound 0.1 µM
# [9] = second compound 0.316 µM, first compound 0.01 µM
# [10] = second compound 0.316 µM, first compound 0.0316 µM
# [11] = second compound 0.316 µM, first compound 0.1 µM
# [12] = second compound 1 µM, first compound 0.01 µM
# [13] = second compound 1 µM, first compound 0.0316 µM
# [14] = second compound 1 µM, first compound 0.1 µM
# [15] = second compound 3.16 µM, first compound 0.01 µM
# [16] = second compound 3.16 µM, first compound 0.0316 µM
# [17] = second compound 3.16 µM, first compound 0.1 µM
# [18] = second compound 10 µM, first compound 0.01 µM
# [19] = second compound 10 µM, first compound 0.0316 µM
# [20] = second compound 10 µM, first compound 0.1 µM
# [21] = second compound 0.1 µM, first compound 0.316 µM
# [22] = second compound 0.1 µM, first compound 1 µM
# [23] = second compound 0.1 µM, first compound 3.16 µM
# [24] = second compound 0.1 µM, first compound 10 µM
# [25] = second compound 0.316 µM, first compound 0.316 µM
# [26] = second compound 0.316 µM, first compound 1 µM
# [27] = second compound 0.316 µM, first compound 3.16 µM
# [28] = second compound 0.316 µM, first compound 10 µM
# [29] = second compound 1 µM, first compound 0.316 µM
# [30] = second compound 1 µM, first compound 1 µM
# [31] = second compound 1 µM, first compound 3.16 µM
# [32] = second compound 1 µM, first compound 10 µM
# [33] = second compound 3.16 µM, first compound 0.316 µM
# [34] = second compound 3.16 µM, first compound 1 µM
# [35] = second compound 3.16 µM, first compound 3.16 µM
# [36] = second compound 3.16 µM, first compound 10 µM
# [37] = second compound 10 µM, first compound 0.316 µM
# [38] = second compound 10 µM, first compound 1 µM
# [39] = second compound 10 µM, first compound 3.16 µM
# [40] = second compound 10 µM, first compound 10 µM
# 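Also: drug exposure lasted seven days.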
# 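For viability, T/C in this document: 100% = DMSO vehicle wells and lower means fewer viable cells.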
Compound,IC50 [1],IC50 [2],IC50 [3],IC50 [4],IC50 [5],"viability, T/C [7]","viability, T/C [8]","viability, T/C [10]","viability, T/C [11]","viability, T/C [13]","viability, T/C [14]","viability, T/C [16]","viability, T/C [17]","viability, T/C [19]","viability, T/C [20]","viability, T/C [21]","viability, T/C [22]","viability, T/C [23]","viability, T/C [25]","viability, T/C [26]",also measured
CC(C)n1nc(-c2ccc3oc(N)nc3c2)c2c(N)ncnc21 + COc1cc2nc(C)nc(NC(C)c3cc(N)cc(C(F)(F)F)c3)c2cc1OC1CCOC1,0.0975 µM,0.0947 µM,0.092 µM,0.0566 µM,< 0.000316 µM,63.9%,49.1%,64.6%,47.3%,63%,46.8%,61.6%,39.5%,45.5%,39.6%,,,,,,"viability, T/C (second compound 0.1 µM, first compound 0.000316 µM): 96.3%; viability, T/C (second compound 0.1 µM, first compound 0.001 µM): 96%; viability, T/C (second compound 0.1 µM, first compound 0.00316 µM): 79.9%; viability, T/C [6]: 73.8%; viability, T/C (second compound 0.316 µM, first compound 0.000316 µM): 101%; viability, T/C (second compound 0.316 µM, first compound 0.001 µM): 85.9%; viability, T/C (second compound 0.316 µM, first compound 0.00316 µM): 80%; viability, T/C [9]: 69.6%; viability, T/C (second compound 1 µM, first compound 0.000316 µM): 94.8%; viability, T/C (second compound 1 µM, first compound 0.001 µM): 87.1%; viability, T/C (second compound 1 µM, first compound 0.00316 µM): 74.8%; viability, T/C [12]: 75.1%; viability, T/C (second compound 3.16 µM, first compound 0.000316 µM): 64.9%; viability, T/C (second compound 3.16 µM, first compound 0.001 µM): 66.8%; viability, T/C (second compound 3.16 µM, first compound 0.00316 µM): 63.5%; viability, T/C [15]: 60.1%; viability, T/C (second compound 10 µM, first compound 0.000316 µM): 32%; viability, T/C (second compound 10 µM, first compound 0.001 µM): 24.6%; viability, T/C (second compound 10 µM, first compound 0.00316 µM): 68.8%; viability, T/C [18]: 60.7%"
O=C(c1cc(Cc2n[nH]c(=O)c3ccccc23)ccc1F)N1CCN(C(=O)C2CC2)CC1 + CNCc1ccccc1-c1csc(C(C)Nc2nc(C)nc3cc(OC)c(OC)cc23)c1,> 10 µM,> 10 µM,> 10 µM,< 0.0316 µM,< 0.0316 µM,72.8%,79.4%,65.6%,65.3%,61.3%,68.7%,1.32%,3.56%,0.13%,0.47%,75.4%,71.6%,66.7%,64.6%,62%,"viability, T/C [24]: 71.9%; viability, T/C [27]: 56.5%; viability, T/C [28]: 66.5%; viability, T/C [29]: 62.8%; viability, T/C [30]: 55%; viability, T/C [31]: 64.3%; viability, T/C [32]: 62.9%; viability, T/C [33]: 0.56%; viability, T/C [34]: 0.32%; viability, T/C [35]: 3.02%; viability, T/C [36]: 0.56%; viability, T/C [37]: 1.37%; viability, T/C [38]: 0.65%; viability, T/C [39]: 0.77%; viability, T/C [40]: 0.19%"
CC1OCC2(CCN(c3cnc(Sc4ccnc(N)c4Cl)c(N)n3)CC2)C1N (configuration not stated) + C=CC(=O)N1CCN(c2nc(=O)n(-c3c(C)ccnc3C(C)C)c3nc(-c4c(O)cccc4F)c(F)cc23)C(C)C1,> 10 µM,> 10 µM,> 10 µM,> 10 µM,> 10 µM,99.6%,93.6%,97.3%,94.4%,98.7%,103%,97.7%,95.9%,75%,75%,99.6%,92%,106%,91.9%,96%,"viability, T/C [24]: 128%; viability, T/C [27]: 113%; viability, T/C [28]: 116%; viability, T/C [29]: 102%; viability, T/C [30]: 90.4%; viability, T/C [31]: 124%; viability, T/C [32]: 120%; viability, T/C [33]: 91.8%; viability, T/C [34]: 81.3%; viability, T/C [35]: 106%; viability, T/C [36]: 108%; viability, T/C [37]: 62.5%; viability, T/C [38]: 54.8%; viability, T/C [39]: 70.4%; viability, T/C [40]: 79%"
CC1COCCN1c1cc(-c2ccnn2C)c2ccnc(-c3ccn[nH]3)c2n1 (configuration not stated) + COc1cc2nc(C)nc(NC(C)c3cc(N)cc(C(F)(F)F)c3)c2cc1OC1CCOC1,> 3.16 µM,> 3.16 µM,> 3.16 µM,> 3.16 µM,< 0.01 µM,85.4%,71.3%,79.6%,79.1%,78.2%,78.3%,71.6%,62.4%,48.4%,45.3%,78.3%,65.5%,80.4%,71%,64.4%,"viability, T/C [6]: 100%; viability, T/C [9]: 82.8%; viability, T/C [27]: 75.3%; viability, T/C [12]: 88.5%; viability, T/C [29]: 68.6%; viability, T/C [30]: 66.8%; viability, T/C [31]: 74.8%; viability, T/C [15]: 77.6%; viability, T/C [33]: 54.6%; viability, T/C [34]: 64.3%; viability, T/C [35]: 59.1%; viability, T/C [18]: 41.5%; viability, T/C [37]: 34.1%; viability, T/C [38]: 47.6%; viability, T/C [39]: 43.4%"
CC(=O)OC12COC1CC(O)C1(C)C(=O)C(O)C3=C(C)C(OC(=O)C(O)C(NC(=O)OC(C)(C)C)c4ccccc4)CC(O)(C(OC(=O)c4ccccc4)C21)C3(C)C (configuration not stated) + C=CC(=O)N1CCN(c2nc(=O)n(-c3c(C)ccnc3C(C)C)c3nc(-c4c(O)cccc4F)c(F)cc23)C(C)C1,> 3.16 µM,> 3.16 µM,> 3.16 µM,> 3.16 µM,> 3.16 µM,74.1%,77.7%,82.5%,74.4%,87%,81.4%,88.1%,90.3%,92.2%,90.1%,94.7%,94.3%,114%,77.1%,88.4%,"viability, T/C [6]: 86.2%; viability, T/C [9]: 86%; viability, T/C [27]: 113%; viability, T/C [12]: 90.6%; viability, T/C [29]: 62.5%; viability, T/C [30]: 65.6%; viability, T/C [31]: 69%; viability, T/C [15]: 97.3%; viability, T/C [33]: 101%; viability, T/C [34]: 98.4%; viability, T/C [35]: 104%; viability, T/C [18]: 98.9%; viability, T/C [37]: 73.2%; viability, T/C [38]: 86.8%; viability, T/C [39]: 76.8%"
CCN1CCN(Cc2ccc(Nc3ncc(F)c(-c4cc(F)c5nc(C)n(C(C)C)c5c4)n3)nc2)CC1,,,,,,,,,,,,,,,,,,,,,"viability, T/C (compound 0.00316 µM): 101% [middle of 5 runs]; viability, T/C (compound 0.01 µM): 86.9% [middle of 5 runs]; viability, T/C (compound 0.0316 µM): 85.5% [middle of 5 runs]; viability, T/C (compound 0.1 µM): 81.5% [middle of 5 runs]; viability, T/C (compound 0.316 µM): 88.2% [middle of 5 runs]; viability, T/C (compound 1 µM): 95.5% [middle of 5 runs]; IC50 (curve of compound): > 1 µM"
CCNC(=O)CC1N=C(c2ccc(Cl)cc2)c2cc(OC)ccc2-n2c(C)nnc21 (configuration not stated) + COc1cc2nc(C)nc(NC(C)c3cc(N)cc(C(F)(F)F)c3)c2cc1OC1CCOC1,> 10 µM,> 10 µM,> 10 µM,> 10 µM,0.0382 µM,91.4%,87.3%,95.6%,103%,83.7%,86.2%,70.8%,71.3%,48.7%,52%,75.6%,75.2%,70.5%,76.3%,72.4%,"viability, T/C [24]: 75.8%; viability, T/C [27]: 68.5%; viability, T/C [28]: 73.1%; viability, T/C [29]: 74.1%; viability, T/C [30]: 65.6%; viability, T/C [31]: 69.5%; viability, T/C [32]: 66.8%; viability, T/C [33]: 66.5%; viability, T/C [34]: 73.8%; viability, T/C [35]: 60.7%; viability, T/C [36]: 75.4%; viability, T/C [37]: 39.5%; viability, T/C [38]: 34.2%; viability, T/C [39]: 40%; viability, T/C [40]: 28.4%"
